Measurements reported in patent publication US12540128B2, “Substituted pyridazinones as herbicides” (SYNGENTA CROP PROTECTION AG, priority 2019, dated 2026).

How the values were obtained:
Type in all cases: in vivo
Conditions in all cases: 250 g/ha, after 13 days
[1] = tested on: Echinochloa crus-galli (ECHCG); assay: B3 Pre-Emergence Efficacy Test 1
Procedure: (§1) Seeds of a variety of test species were sown in standard soil in pots: Solanum nigrum (SOLNI), Amaranthus retoflexus (AMARE), Setaria faberi (SETFA), Echinochloa crus-galli (ECHCG), Ipomoea hederacea (IPOHE), Lolium perenne (LOLPE). After cultivation for one day (pre-emergence) under controlled conditions in a glasshouse (at 24/16° C., day/night; 14 hours light; 65% humidity), the plants were sprayed with an aqueous spray solution derived from the formulation of the technical active ingredient in acetone/water (50:50) solution containing 0.5% Tween 20 (polyoxyethelyene sorbitan monolaurate, CAS RN 9005-64-5). Compounds are applied at 250 g/ha. The test plants were then grown in a glasshouse under controlled conditions (at 24/16° C., day/night; 14 hours light; 65% humidity) and watered twice daily. After 13 days, the test is evaluated for the percentage damage caused to the plant. The biological activities are assessed on a five point scale (5=80-100%; 4=60-79%; 3=40-59%; 2=20-39%; 1=0-19%). A blank value in the table is indicative that the compound was not tested on that species.

Lolium perenne (LOLPE) [2] = assay: B3 Pre-Emergence Efficacy Test 1
Procedure: as §1

Solanum nigrum (SOLNI) [3] = assay: B3 Pre-Emergence Efficacy Test 1
Procedure: as §1

[4] = tested on: Amaranthus retoflexus (AMARE); assay: B3 Pre-Emergence Efficacy Test 1
Procedure: as §1

[5] = tested on: Ipomoea hederacea (IPOHE); assay: B3 Pre-Emergence Efficacy Test 1
Procedure: as §1

Setaria faberi (SETFA) [6] = assay: B3 Pre-Emergence Efficacy Test 1
Procedure: as §1

[7] = tested on: Echinochloa crus-galli (ECHCG); assay: B1 Post-Emergence Efficacy Test 1
Procedure: (§2) Seeds of a variety of test species are sown in standard soil in pots:— Solanum nigrum (SOLNI), Amaranthus retoflexus (AMARE), Setaria faberi (SETFA), Echinochloa crus-galli (ECHCG), Ipomoea hederacea (IPOHE), Lolium perenne (LOLPE). After 8 days cultivation (post-emergence) under controlled conditions in a glasshouse (at 24/16° C., day/night; 14 hours light; 65% humidity), the plants are sprayed with an aqueous spray solution derived from the formulation of the technical active ingredient in acetone/water (50:50) solution containing 0.5% Tween 20 (polyoxyethylene sorbitan monolaurate, CAS RN 9005-64-5). Compounds are applied at 250 g/ha. The test plants are then grown in a glasshouse under controlled conditions in a glasshouse (at 24/16° C., day/night; 14 hours light; 65% humidity) and watered twice daily. After 13 days, the test is evaluated for the percentage damage caused to the plant. The biological activities are assessed on a five point scale (5=80-100%; 4=60-79%; 3=40-59%; 2=20-39%; 1=0-19%). A blank value in the table is indicative that the compound was not tested on that species.

Lolium perenne (LOLPE) [8] = assay: B1 Post-Emergence Efficacy Test 1
Procedure: as §2

[9] = tested on: Amaranthus retoflexus (AMARE); assay: B1 Post-Emergence Efficacy Test 1
Procedure: as §2

[10] = tested on: Ipomoea hederacea (IPOHE); assay: B1 Post-Emergence Efficacy Test 1
Procedure: as §2

Setaria faberi (SETFA) [11] = assay: B1 Post-Emergence Efficacy Test 1
Procedure: as §2

[12] = tested on: Abutilon theophrasti (ABUTH); assay: B2 Post-Emergence Efficacy Test 2
Procedure: as §2, with “pots:—” for “pots:— Solanum nigrum (SOLNI),”, “Zea Mays (ZEAMX), Abutilon theophrasti (ABUTH).” for “Lolium perenne (LOLPE).”

Zea Mays (ZEAMX) [13] = assay: B2 Post-Emergence Efficacy Test 2
Procedure: as §2, with “pots:—” for “pots:— Solanum nigrum (SOLNI),”, “Zea Mays (ZEAMX), Abutilon theophrasti (ABUTH).” for “Lolium perenne (LOLPE).”

[14] = tested on: Amaranthus retoflexus (AMARE); assay: B2 Post-Emergence Efficacy Test 2
Procedure: as §2, with “pots:—” for “pots:— Solanum nigrum (SOLNI),”, “Zea Mays (ZEAMX), Abutilon theophrasti (ABUTH).” for “Lolium perenne (LOLPE).”

[15] = tested on: Ipomoea hederacea (IPOHE); assay: B2 Post-Emergence Efficacy Test 2
Procedure: as §2, with “pots:—” for “pots:— Solanum nigrum (SOLNI),”, “Zea Mays (ZEAMX), Abutilon theophrasti (ABUTH).” for “Lolium perenne (LOLPE).”

Setaria faberi (SETFA) [16] = assay: B2 Post-Emergence Efficacy Test 2
Procedure: as §2, with “pots:—” for “pots:— Solanum nigrum (SOLNI),”, “Zea Mays (ZEAMX), Abutilon theophrasti (ABUTH).” for “Lolium perenne (LOLPE).”

Solanum nigrum (SOLNI) [17] = assay: B1 Post-Emergence Efficacy Test 1
Procedure: as §2

[18] = tested on: Echinochloa crus-galli (ECHCG); assay: B4 Pre-Emergence Efficacy Test 2
Procedure: as §1, with “pots:” for “pots: Solanum nigrum (SOLNI),”, “Zea Mays (ZEAMX), Abutilon theophrasti (ABUTH).” for “Lolium perenne (LOLPE).”

[19] = tested on: Abutilon theophrasti (ABUTH); assay: B4 Pre-Emergence Efficacy Test 2
Procedure: as §1, with “pots:” for “pots: Solanum nigrum (SOLNI),”, “Zea Mays (ZEAMX), Abutilon theophrasti (ABUTH).” for “Lolium perenne (LOLPE).”

Zea Mays (ZEAMX) [20] = assay: B4 Pre-Emergence Efficacy Test 2
Procedure: as §1, with “pots:” for “pots: Solanum nigrum (SOLNI),”, “Zea Mays (ZEAMX), Abutilon theophrasti (ABUTH).” for “Lolium perenne (LOLPE).”

[21] = tested on: Amaranthus retoflexus (AMARE); assay: B4 Pre-Emergence Efficacy Test 2
Procedure: as §1, with “pots:” for “pots: Solanum nigrum (SOLNI),”, “Zea Mays (ZEAMX), Abutilon theophrasti (ABUTH).” for “Lolium perenne (LOLPE).”

[22] = tested on: Ipomoea hederacea (IPOHE); assay: B4 Pre-Emergence Efficacy Test 2
Procedure: as §1, with “pots:” for “pots: Solanum nigrum (SOLNI),”, “Zea Mays (ZEAMX), Abutilon theophrasti (ABUTH).” for “Lolium perenne (LOLPE).”

Setaria faberi (SETFA) [23] = assay: B4 Pre-Emergence Efficacy Test 2
Procedure: as §1, with “pots:” for “pots: Solanum nigrum (SOLNI),”, “Zea Mays (ZEAMX), Abutilon theophrasti (ABUTH).” for “Lolium perenne (LOLPE).”

[24] = tested on: Echinochloa crus-galli (ECHCG); assay: B2 Post-Emergence Efficacy Test 2
Procedure: as §2, with “pots:—” for “pots:— Solanum nigrum (SOLNI),”, “Zea Mays (ZEAMX), Abutilon theophrasti (ABUTH).” for “Lolium perenne (LOLPE).”

SMILES | percentage damage caused to the plant, five point scale, ECHCG [1] | percentage damage caused to the plant, five point scale, LOLPE (Lolium perenne (LOLPE) [2]) | percentage damage caused to the plant, five point scale, SOLNI (Solanum nigrum (SOLNI) [3]) | percentage damage caused to the plant, five point scale, AMARE [4] | percentage damage caused to the plant, five point scale, IPOHE [5] | percentage damage caused to the plant, five point scale, SETFA (Setaria faberi (SETFA) [6]) | percentage damage caused to the plant, five point scale, LOLPE (Lolium perenne (LOLPE) [8]) | percentage damage caused to the plant, five point scale, AMARE [9] | percentage damage caused to the plant, five point scale, IPOHE [10] | percentage damage caused to the plant, five point scale, SETFA (Setaria faberi (SETFA) [11]) | percentage damage caused to the plant, five point scale, ABUTH [12] | percentage damage caused to the plant, five point scale, ZEAMX (Zea Mays (ZEAMX) [13]) | percentage damage caused to the plant, five point scale, AMARE [14] | percentage damage caused to the plant, five point scale, IPOHE [15] | percentage damage caused to the plant, five point scale, SETFA (Setaria faberi (SETFA) [16]) | percentage damage caused to the plant, five point scale, SOLNI (Solanum nigrum (SOLNI) [17]) | percentage damage caused to the plant, five point scale, ECHCG [18] | percentage damage caused to the plant, five point scale, ABUTH [19] | percentage damage caused to the plant, five point scale, ZEAMX (Zea Mays (ZEAMX) [20]) | percentage damage caused to the plant, five point scale, AMARE [21] | other results
Cc1nn(C)c(=O)c(-c2c(F)ccc(Cl)c2CCc2cc(C(F)(F)F)nc3ccccc23)c1O [Compound 1.027] | 3 (3=40-59%) | 3 (3=40-59%) | 4 (4=60-79%) | 1 (1=0-19%) | 3 (3=40-59%) | 1 (1=0-19%) | 4 (4=60-79%) | 2 (2=20-39%) | 5 (5=80-100%) | 4 (4=60-79%) |  |  |  |  |  |  |  |  |  |  | percentage damage caused to the plant, five point scale, ECHCG [7]: 4 (4=60-79%)
Cc1nn(C)c(=O)c(-c2c(F)ccc(Cl)c2CCc2ccc3c(c2)CC(=O)N3)c1O [Compound 1.357] |  |  |  |  |  |  | 5 (5=80-100%) | 5 (5=80-100%) | 5 (5=80-100%) | 5 (5=80-100%) | 4 (4=60-79%) | 5 (5=80-100%) | 2 (2=20-39%) | 4 (4=60-79%) | 4 (4=60-79%) | 5 (5=80-100%) | 4 (4=60-79%) | 4 (4=60-79%) | 1 (1=0-19%) | 4 (4=60-79%) | percentage damage caused to the plant, five point scale, ECHCG [7]: 4 (4=60-79%); percentage damage caused to the plant, five point scale, IPOHE [22]: 3 (3=40-59%); percentage damage caused to the plant, five point scale, SETFA (Setaria faberi (SETFA) [23]): 4 (4=60-79%)
Cc1nn(C)c(=O)c(-c2c(F)ccc(Cl)c2CCc2ccc3c(c2)OC(C)(C)O3)c1O [Compound 1.361, [3-chloro-2-[2-(2,2-dimethyl-1,3-benzodioxol-5-yl)ethyl]-6-fluoro-phenyl]-5-hydroxy-2,6-dimethyl-pyridazin-3-one] |  |  |  |  |  |  |  |  |  |  | 5 (5=80-100%) | 4 (4=60-79%) | 3 (3=40-59%) | 5 (5=80-100%) | 5 (5=80-100%) |  | 3 (3=40-59%) | 5 (5=80-100%) | 1 (1=0-19%) | 4 (4=60-79%) | percentage damage caused to the plant, five point scale, ECHCG [24]: 4 (4=60-79%); percentage damage caused to the plant, five point scale, IPOHE [22]: 4 (4=60-79%); percentage damage caused to the plant, five point scale, SETFA (Setaria faberi (SETFA) [23]): 5 (5=80-100%)
Cc1ccc2cc(/C=C/c3c(Cl)ccc(F)c3-c3c(O)c(C)nn(C)c3=O)ccc2n1 [Compound 2.034, 4-[3-chloro-6-fluoro-2-[(E)-2-(2-methyl-6-quinolyl)vinyl]phenyl]-5-hydroxy-2,6-dimethyl-pyridazin-3-one] | 1 (1=0-19%) | 1 (1=0-19%) | 2 (2=20-39%) | 1 (1=0-19%) | 0 | 1 (1=0-19%) | 2 (2=20-39%) | 1 (1=0-19%) | 3 (3=40-59%) | 2 (2=20-39%) |  |  |  |  |  | 5 (5=80-100%) |  |  |  |  | 
Cc1nn(C)c(=O)c(-c2c(F)ccc(Cl)c2/C=C/c2cn3ccnc3cn2)c1O [Compound 2.363] |  |  |  |  |  |  |  |  |  |  | 0 | 0 | 1 (1=0-19%) | 2 (2=20-39%) | 0 |  | 5 (5=80-100%) | 5 (5=80-100%) | 2 (2=20-39%) | 5 (5=80-100%) | percentage damage caused to the plant, five point scale, ECHCG [24]: 0; percentage damage caused to the plant, five point scale, IPOHE [22]: 5 (5=80-100%); percentage damage caused to the plant, five point scale, SETFA (Setaria faberi (SETFA) [23]): 4 (4=60-79%)
Cc1ccc2cc(/C=C/c3c(Cl)ccc(F)c3-c3c(OC(=O)C(C)C)c(C)nn(C)c3=O)ccc2n1 [Compound 4.034, [5-[3-chloro-6-fluoro-2-[(E)-2-(2-methyl-6-quinolyl)vinyl]phenyl]-1,3-dimethyl-6-oxo-pyridazin-4-yl] 2-methylpropanoate] | 0 | 0 | 1 (1=0-19%) | 0 | 0 | 0 | 1 (1=0-19%) | 1 (1=0-19%) | 3 (3=40-59%) | 2 (2=20-39%) |  |  |  |  |  | 5 (5=80-100%) |  |  |  |  | 
